{"source": "patent US20220331303A1", "about": "“USE OF AN OREXIN 2 RECEPTOR AGONIST FOR THE TREATMENT OF EXCESSIVE SLEEPINESS” (Takeda Pharmaceutical Company Limited, priority 2019, published 2022)", "test": "Plasma PK of Compound A after a single 9-hour IV infusion in sleep-deprived healthy male subjects", "assay_type": "in vivo, human", "protocol": "This was a phase 1b, single-center, randomized, double-blind, double-dummy, placebo- and active-controlled, 4-period Williams design crossover study to evaluate the PK, PD, and safety of Compound A in sleep-deprived healthy volunteers. Compound A was administered as a 9-hour IV infusion.\nHealthy adult male subjects aged 18 to 40 years, inclusive, who satisfied the inclusion and exclusion criteria were enrolled in the trial. On Day 1 of treatment period 1, eligible subjects were equally randomized to 4 treatment sequence groups (sequence 1 to 4) which defined the order of administration for Compound A LD, Compound A HD (both delivered as a 9-hour IV infusion), modafinil 300 mg, and placebo.\nDuring the day before dosing on Day 1, participants were administered the KSS at scheduled timepoints. A practice MWT session was performed on Day 1 treatment period 1 (only once during the entire study) to familiarize subjects with the procedures. Study drug was administered in the clinic in the evening on Day 1 of each treatment period. Subjects underwent the MWT and KSS at specified timepoints after the start of the infusion. Subjects were required to stay awake between the MWT tests. Following completion of the IV infusion on Day 2, subjects underwent an additional MWT test. When the final MWT test and cognitive testing were completed, subjects were allowed to sleep (recovery sleep) for approximately 6 hours. PSG recording was collected during this time. Subjects were discharged from the unit after completion on Day 2 with continuing actigraphy upon discharge (to begin on Day −6 before the next treatment period). The interval between each subsequent treatment period was at least 7 days to ensure that the subject's circadian rhythm had returned to a normal cycle. Subject's vital signs, including BP, were monitored during the dosing and testing period. Blood samples for determination of Compound A plasma concentrations were collected at specified timepoints on Days 1 and 2 of each treatment period. Subjects completed the Columbia-Suicide Severity Rating Scale (C-SSRS) during screening, before study drug administration, and before discharge on Day 2 of each treatment period.\nPlasma concentrations were tabulated, and descriptive statistics were calculated for each Compound A dose level and are listed in Tables 3-6 for Compound A. The mean plasma concentration versus time plots for Compound A are shown in FIG. 1.", "key": {"[1]": {"details": "44 mg 9-h IV infusion, 0.17 h post infusion end"}, "[2]": {"details": "44 mg 9-h IV infusion, 0.5 h post infusion end"}, "[3]": {"details": "44 mg 9-h IV infusion, 1 h post infusion end"}, "[4]": {"details": "44 mg 9-h IV infusion, 2 h post infusion end"}, "[5]": {"details": "44 mg 9-h IV infusion, 3 h post infusion end"}, "[6]": {"details": "44 mg 9-h IV infusion, 4 h post infusion end"}, "[7]": {"details": "44 mg 9-h IV infusion, 6 h post infusion end"}, "[8]": {"details": "44 mg 9-h IV infusion, 9 h post infusion end"}, "[9]": {"details": "44 mg 9-h IV infusion, Discharge (post infusion end)"}, "[10]": {"details": "44 mg [LD] single 9-hour IV infusion"}, "[11]": {"details": "112 mg 9-h IV infusion, 0.17 h post infusion end"}, "[12]": {"details": "112 mg 9-h IV infusion, 0.5 h post infusion end"}, "[13]": {"details": "112 mg 9-h IV infusion, 1 h post infusion end"}, "[14]": {"details": "112 mg 9-h IV infusion, 1 h post infusion start"}, "[15]": {"details": "112 mg 9-h IV infusion, 2 h post infusion end"}, "[16]": {"details": "112 mg 9-h IV infusion, 2 h post infusion start"}, "[17]": {"details": "112 mg 9-h IV infusion, 4 h post infusion start"}, "[18]": {"details": "112 mg 9-h IV infusion, 6 h post infusion start"}, "[19]": {"details": "112 mg 9-h IV infusion, 9 h post infusion start"}, "[20]": {"details": "112 mg 9-h IV infusion, Discharge (post infusion end)"}, "[21]": {"details": "112 mg [HD] single 9-hour IV infusion"}}}
{"smiles": "COC(=O)N1CCC[C@H](NS(C)(=O)=O)[C@@H]1CO[C@H]1CC[C@@H](c2ccccc2)CC1", "note": "[Compound A, methyl (2R,3S)-3-((methylsulfonyl)amino)-2-(((cis-4-phenylcyclohexyl)oxy)methyl)piperidine-1-carboxylate]", "values": [{"measurement": "Plasma Concentration Mean", "setting": "[1]", "result": 76.86, "unit": "ng/mL"}, {"measurement": "Plasma concentration (GM)", "setting": "[1]", "result": 76.07, "unit": "ng/mL"}, {"measurement": "Plasma concentration (Median)", "setting": "[1]", "result": 74.80, "unit": "ng/mL"}, {"measurement": "Plasma Concentration Mean", "setting": "[2]", "result": 50.78, "unit": "ng/mL"}, {"measurement": "Plasma concentration (GM)", "setting": "[2]", "result": 49.49, "unit": "ng/mL"}, {"measurement": "Plasma concentration (Median)", "setting": "[2]", "result": 49.10, "unit": "ng/mL"}, {"measurement": "Plasma Concentration Mean", "setting": "[3]", "result": 40.73, "unit": "ng/mL"}, {"measurement": "Plasma concentration (GM)", "setting": "[3]", "result": 39.05, "unit": "ng/mL"}, {"measurement": "Plasma concentration (Median)", "setting": "[3]", "result": 38.15, "unit": "ng/mL"}, {"measurement": "Plasma Concentration Mean", "setting": "[4]", "result": 22.23, "unit": "ng/mL"}, {"measurement": "Plasma concentration (GM)", "setting": "[4]", "result": 21.44, "unit": "ng/mL"}, {"measurement": "Plasma concentration (Median)", "setting": "[4]", "result": 21.00, "unit": "ng/mL"}, {"measurement": "Plasma Concentration Mean", "setting": "[5]", "result": 20.67, "unit": "ng/mL"}, {"measurement": "Plasma concentration (GM)", "setting": "[5]", "result": 19.74, "unit": "ng/mL"}, {"measurement": "Plasma concentration (Median)", "setting": "[5]", "result": 20.35, "unit": "ng/mL"}, {"measurement": "Plasma Concentration Mean", "setting": "[6]", "result": 16.28, "unit": "ng/mL"}, {"measurement": "Plasma concentration (GM)", "setting": "[6]", "result": 15.56, "unit": "ng/mL"}, {"measurement": "Plasma concentration (Median)", "setting": "[6]", "result": 17.25, "unit": "ng/mL"}, {"measurement": "Plasma Concentration Mean", "setting": "[7]", "result": 10.32, "unit": "ng/mL"}, {"measurement": "Plasma concentration (GM)", "setting": "[7]", "result": 9.85, "unit": "ng/mL"}, {"measurement": "Plasma concentration (Median)", "setting": "[7]", "result": 10.75, "unit": "ng/mL"}, {"measurement": "Plasma Concentration Mean", "setting": "[8]", "result": 5.56, "unit": "ng/mL"}, {"measurement": "Plasma concentration (GM)", "setting": "[8]", "result": 5.06, "unit": "ng/mL"}, {"measurement": "Plasma concentration (Median)", "setting": "[8]", "result": 5.06, "unit": "ng/mL"}, {"measurement": "Plasma Concentration Mean", "setting": "[9]", "result": 4.95, "unit": "ng/mL"}, {"measurement": "Plasma concentration (GM)", "setting": "[9]", "result": 4.60, "unit": "ng/mL"}, {"measurement": "Plasma concentration (Median)", "setting": "[9]", "result": 4.78, "unit": "ng/mL"}, {"measurement": "Ceoi (GM)", "setting": "[10]", "result": 102.5, "unit": "ng/mL"}, {"measurement": "Ceoi (Mean)", "setting": "[10]", "result": 103.4, "unit": "ng/mL"}, {"measurement": "Ceoi (Median)", "setting": "[10]", "result": 101.0, "unit": "ng/mL"}, {"measurement": "t1/2z (Mean)", "setting": "[10]", "result": 3.134, "unit": "h"}, {"measurement": "t1/2z (Median)", "setting": "[10]", "result": 3.020, "unit": "h"}, {"measurement": "Plasma Concentration Mean", "setting": "[11]", "result": 196.83, "unit": "ng/mL"}, {"measurement": "Plasma concentration (Median)", "setting": "[11]", "result": 197.50, "unit": "ng/mL"}, {"measurement": "Plasma Concentration Mean", "setting": "[12]", "result": 124.21, "unit": "ng/mL"}, {"measurement": "Plasma concentration (Median)", "setting": "[12]", "result": 121.50, "unit": "ng/mL"}, {"measurement": "Plasma Concentration Mean", "setting": "[13]", "result": 100.48, "unit": "ng/mL"}, {"measurement": "Plasma concentration (Median)", "setting": "[13]", "result": 96.90, "unit": "ng/mL"}, {"measurement": "Plasma Concentration Mean", "setting": "[14]", "result": 162.56, "unit": "ng/mL"}, {"measurement": "Plasma concentration (GM)", "setting": "[14]", "result": 155.56, "unit": "ng/mL"}, {"measurement": "Plasma concentration (Median)", "setting": "[14]", "result": 151.00, "unit": "ng/mL"}, {"measurement": "Plasma Concentration Mean", "setting": "[15]", "result": 58.92, "unit": "ng/mL"}, {"measurement": "Plasma concentration (Median)", "setting": "[15]", "result": 61.40, "unit": "ng/mL"}, {"measurement": "Plasma Concentration Mean", "setting": "[16]", "result": 187.06, "unit": "ng/mL"}, {"measurement": "Plasma concentration (GM)", "setting": "[16]", "result": 185.71, "unit": "ng/mL"}, {"measurement": "Plasma concentration (Median)", "setting": "[16]", "result": 179.50, "unit": "ng/mL"}, {"measurement": "Plasma Concentration Mean", "setting": "112 mg 9-h IV infusion, 3 h post infusion end", "result": 53.01, "unit": "ng/mL"}, {"measurement": "Plasma Concentration Mean", "setting": "112 mg 9-h IV infusion, 4 h post infusion end", "result": 41.98, "unit": "ng/mL"}, {"measurement": "Plasma Concentration Mean", "setting": "[17]", "result": 217.61, "unit": "ng/mL"}, {"measurement": "Plasma concentration (GM)", "setting": "[17]", "result": 216.56, "unit": "ng/mL"}, {"measurement": "Plasma concentration (Median)", "setting": "[17]", "result": 210.00, "unit": "ng/mL"}, {"measurement": "Plasma Concentration Mean", "setting": "112 mg 9-h IV infusion, 6 h post infusion end", "result": 24.24, "unit": "ng/mL"}, {"measurement": "Plasma Concentration Mean", "setting": "[18]", "result": 234.06, "unit": "ng/mL"}, {"measurement": "Plasma concentration (GM)", "setting": "[18]", "result": 232.92, "unit": "ng/mL"}, {"measurement": "Plasma concentration (Median)", "setting": "[18]", "result": 229.50, "unit": "ng/mL"}, {"measurement": "Plasma Concentration Mean", "setting": "112 mg 9-h IV infusion, 9 h post infusion end", "result": 13.78, "unit": "ng/mL"}, {"measurement": "Plasma Concentration Mean", "setting": "[19]", "result": 253.39, "unit": "ng/mL"}, {"measurement": "Plasma concentration (GM)", "setting": "[19]", "result": 250.96, "unit": "ng/mL"}, {"measurement": "Plasma concentration (Median)", "setting": "[19]", "result": 252.50, "unit": "ng/mL"}, {"measurement": "Plasma Concentration Mean", "setting": "[20]", "result": 13.01, "unit": "ng/mL"}, {"measurement": "Plasma concentration (GM)", "setting": "[20]", "result": 12.09, "unit": "ng/mL"}, {"measurement": "Plasma concentration (Median)", "setting": "[20]", "result": 11.50, "unit": "ng/mL"}, {"measurement": "Ceoi (GM)", "setting": "[21]", "result": 251.0, "unit": "ng/mL"}, {"measurement": "Ceoi (Mean)", "setting": "[21]", "result": 253.4, "unit": "ng/mL"}, {"measurement": "Ceoi (Median)", "setting": "[21]", "result": 252.5, "unit": "ng/mL"}, {"measurement": "t1/2z (Mean)", "setting": "[21]", "result": 3.252, "unit": "h"}, {"measurement": "t1/2z (Median)", "setting": "[21]", "result": 3.165, "unit": "h"}]}
